Experimental data from PubChem BioAssay (NCI).
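1) Cells in 96-well plates. 2) Compound, 48 h, 5 concentrations. 3) Linear interpolation between surrounding doses. 4) Unreached endpoint = highest concentration. At the GI50, growth is halved. Definition used: TGI = concentration required for complete inhibition of growth.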

Key:
Experiment in all cases: NCI-60 cell line screen, 48 h
OVCAR-4 ovarian = test system: OVCAR-4 ovarian
COLO 205 colon = test system: COLO 205 colon
U251 CNS = test system: U251 CNS
NCI-H23 lung = test system: NCI-H23 lung
M14 melanoma = test system: M14 melanoma
MDA-MB-435 = test system: MDA-MB-435
MALME-3M melanoma = test system: MALME-3M melanoma
ACHN renal = test system: ACHN renal
K-562 leukemia = test system: K-562 leukemia
UO-31 renal = test system: UO-31 renal
786-0 renal = test system: 786-0 renal
BT-549 breast = test system: BT-549 breast
SK-MEL-5 melanoma = test system: SK-MEL-5 melanoma
A498 renal = test system: A498 renal
IGROV1 ovarian = test system: IGROV1 ovarian
NCI/ADR-RES ovarian = test system: NCI/ADR-RES ovarian
HCT-15 colon = test system: HCT-15 colon
OVCAR-5 ovarian = test system: OVCAR-5 ovarian
NCI-H522 lung = test system: NCI-H522 lung
CAKI-1 renal = test system: CAKI-1 renal
SF-295 CNS = test system: SF-295 CNS
CCRF-CEM leukemia = test system: CCRF-CEM leukemia
SF-268 CNS = test system: SF-268 CNS
OVCAR-8 ovarian = test system: OVCAR-8 ovarian
SF-539 CNS = test system: SF-539 CNS
HS 578T breast = test system: HS 578T breast
T-47D breast = test system: T-47D breast
MDA-MB-231 breast = test system: MDA-MB-231 breast
A549 NSCLC = test system: A549 NSCLC
SK-OV-3 ovarian = test system: SK-OV-3 ovarian
MCF7 breast = test system: MCF7 breast
SR leukemia = test system: SR leukemia
EKVX NSCLC = test system: EKVX NSCLC
KM12 colon = test system: KM12 colon
NCI-H226 lung = test system: NCI-H226 lung
NCI-H460 lung = test system: NCI-H460 lung
PC-3 prostate = test system: PC-3 prostate
OVCAR-3 ovarian = test system: OVCAR-3 ovarian
MOLT-4 leukemia = test system: MOLT-4 leukemia
UACC-62 melanoma = test system: UACC-62 melanoma
HOP-62 NSCLC = test system: HOP-62 NSCLC
HOP-92 NSCLC = test system: HOP-92 NSCLC
UACC-257 melanoma = test system: UACC-257 melanoma
DU-145 prostate = test system: DU-145 prostate
SW-620 colon = test system: SW-620 colon
SNB-19 CNS = test system: SNB-19 CNS
TK-10 renal = test system: TK-10 renal
LOX IMVI melanoma = test system: LOX IMVI melanoma
HT29 colon = test system: HT29 colon

Cc1c(C(=O)c2ccccc2)[n+](=O)c2cc(F)c(F)cc2n1[O-]
GI50 (OVCAR-4 ovarian): 3.11 µM
TGI (OVCAR-4 ovarian): > 100 µM
GI50 (COLO 205 colon): 3.31 µM
TGI (COLO 205 colon): 11.5 µM
GI50 (U251 CNS): 1.71 µM
TGI (U251 CNS): 3.08 µM
GI50 (NCI-H23 lung): 1.72 µM
TGI (NCI-H23 lung): 3.16 µM
GI50 (M14 melanoma): 1.81 µM
TGI (M14 melanoma): 3.36 µM
GI50 (MDA-MB-435): 2.2 µM
TGI (MDA-MB-435): 5.43 µM
GI50 (MALME-3M melanoma): 2.7 µM
TGI (MALME-3M melanoma): 7.76 µM
GI50 (ACHN renal): 1.66 µM
TGI (ACHN renal): 3.02 µM
GI50 (K-562 leukemia): 1.97 µM
TGI (K-562 leukemia): > 100 µM
GI50 (UO-31 renal): 2.04 µM
TGI (UO-31 renal): 4.13 µM
GI50 (786-0 renal): 16.6 µM
TGI (786-0 renal): 31.2 µM
GI50 (BT-549 breast): 2.04 µM
TGI (BT-549 breast): 4.39 µM
GI50 (SK-MEL-5 melanoma): 2.03 µM
TGI (SK-MEL-5 melanoma): 4.24 µM
GI50 (A498 renal): 12.1 µM
TGI (A498 renal): 24.9 µM
GI50 (IGROV1 ovarian): 1.32 µM
TGI (IGROV1 ovarian): 5.33 µM
GI50 (NCI/ADR-RES ovarian): 1.76 µM
TGI (NCI/ADR-RES ovarian): 3.23 µM
GI50 (HCT-15 colon): 0.511 µM
TGI (HCT-15 colon): 1.64 µM
GI50 (OVCAR-5 ovarian): 18.7 µM
TGI (OVCAR-5 ovarian): 33.8 µM
GI50 (NCI-H522 lung): 1.93 µM
TGI (NCI-H522 lung): 3.88 µM
GI50 (CAKI-1 renal): 1.88 µM
TGI (CAKI-1 renal): 3.45 µM
GI50 (SF-295 CNS): 1.95 µM
TGI (SF-295 CNS): 3.46 µM
GI50 (CCRF-CEM leukemia): 1.18 µM
TGI (CCRF-CEM leukemia): 2.89 µM
GI50 (SF-268 CNS): 1.93 µM
TGI (SF-268 CNS): 4.12 µM
GI50 (OVCAR-8 ovarian): 2.02 µM
TGI (OVCAR-8 ovarian): 4.32 µM
GI50 (SF-539 CNS): 3.94 µM
TGI (SF-539 CNS): 12.9 µM
GI50 (HS 578T breast): 2.08 µM
TGI (HS 578T breast): 4.68 µM
GI50 (T-47D breast): 3.7 µM
TGI (T-47D breast): 20.1 µM
GI50 (MDA-MB-231 breast): 1.46 µM
TGI (MDA-MB-231 breast): 2.83 µM
GI50 (A549 NSCLC): 7.26 µM
TGI (A549 NSCLC): 30.9 µM
GI50 (SK-OV-3 ovarian): 3.7 µM
TGI (SK-OV-3 ovarian): 12.9 µM
GI50 (MCF7 breast): 4.35 µM
TGI (MCF7 breast): 21 µM
GI50 (SR leukemia): 0.316 µM
TGI (SR leukemia): 5.24 µM
GI50 (EKVX NSCLC): 10.4 µM
TGI (EKVX NSCLC): 33 µM
GI50 (KM12 colon): 11.4 µM
TGI (KM12 colon): 25 µM
GI50 (NCI-H226 lung): 2.67 µM
TGI (NCI-H226 lung): 4.34 µM
GI50 (NCI-H460 lung): 2.27 µM
TGI (NCI-H460 lung): 5.17 µM
GI50 (PC-3 prostate): 3.37 µM
TGI (PC-3 prostate): 14.1 µM
GI50 (OVCAR-3 ovarian): 1.53 µM
TGI (OVCAR-3 ovarian): 3.04 µM
GI50 (MOLT-4 leukemia): 1.04 µM
TGI (MOLT-4 leukemia): 80.4 µM
GI50 (UACC-62 melanoma): 1.51 µM
TGI (UACC-62 melanoma): 2.83 µM
GI50 (HOP-62 NSCLC): 1.84 µM
TGI (HOP-62 NSCLC): 3.4 µM
GI50 (HOP-92 NSCLC): 3.72 µM
TGI (HOP-92 NSCLC): 14.7 µM
GI50 (UACC-257 melanoma): 2.49 µM
TGI (UACC-257 melanoma): 6.1 µM
GI50 (DU-145 prostate): 10.8 µM
TGI (DU-145 prostate): 24.5 µM
GI50 (SW-620 colon): 1.43 µM
TGI (SW-620 colon): 3.14 µM
GI50 (SNB-19 CNS): 2.3 µM
TGI (SNB-19 CNS): 5.3 µM
GI50 (TK-10 renal): 1.36 µM
TGI (TK-10 renal): 17.5 µM
GI50 (LOX IMVI melanoma): 1.61 µM
TGI (LOX IMVI melanoma): 3.01 µM
GI50 (HT29 colon): 2.52 µM
TGI (HT29 colon): > 100 µM
